Data reported in US20100286092A1, “BETA-LACTAMASE INHIBITORS” (priority 2007, published 2010).

Experiments:
Details in all cases: in the presence of a fixed amount (8 μg/mL) of Ceftazidime; CAMHB, 16-20 hours at 37° C.
[1] = tested on: E. cloacae expressing the Class C P99+; format: cell-based
From the text: (§1) To determine the ability of test compounds to potentiate the inhibition of the growth of bacterial strains producing beta-lactamase enzymes, classic cell based screening assays were employed. Four bacteria strains producing beta-lactamase enzymes were used: K. pneumoniae expressing the Class A Extended Spectrum Beta-Lactamase (ESBL) CTX-M-15, E. coli expressing the Class A ESBL SHV-5, E. cloacae expressing the Class C P99+, and K. pneumoniae expressing the Class A carbapenemase KPC-2. In order to evaluate the ability of test compounds to inhibit beta-lactamase activity, Applicants used a modification of the broth microdilution assay. The assay was conducted in Cation Adjusted Mueller Hinton Broth (CAMHB, BD #212322, BD Diagnostic Systems, Sparks, Md.). Bacteria strains were grown for 3-5 hours in CAMBH broth. All four strains were grown in presence of 50 μg/mL ampicillin to ensure resistance is maintained. In the meantime, test compounds were diluted in DMSO to a 0.1 mg/mL stock. The compounds were added to a microtiter plate and were diluted in 2-fold serial dilutions in CAMHB in a final concentration range of 8 μg/mL to 0.015 μg/ml. An overlay of CAMHB containing a cephalosporin was added to the compounds at a final static concentration of 8 μg/ml. […] Each of these compound plates are made in quadruplicate, one for each bacteria strain. In addition to the titration of test compounds the MICs of a panel of cephalosporins is also tested to ensure the strains are behaving consistently from test to test. Once the test compound and cephalosporin are added the plates can be inoculated. Inocula are conducted according to CLSI broth microdilution method. After inoculation the plates are incubated for 16-20 hours at 37° C. then the Minimal Inhibitory Concentration (MIC) of the test compound is determined visually.
(§2) Using the methodology described above, examples of the current invention were evaluated for their ability to inhibit the growth of β-lactamase producing bacteria in the presence of a β-lactam antibiotic. […] NT=Not Tested.

[2] = tested on: K. pneumoniae expressing the Class A Extended Spectrum Beta-Lactamase (ESBL) CTX-M-15; format: cell-based
From the text: as §1, §2

[3] = tested on: K. pneumoniae expressing the Class A carbapenemase KPC-2
From the text: as §1, §2

Row | Structure (SMILES) | MIC of example compound, E. cloacae P99 AmpC + 8 μg/mL CAZ [1] | MIC of example compound, K. pneumoniae CTX-M-15 + 8 μg/mL CAZ [2] | MIC of example compound, K. pneumoniae KPC-2 + 8 μg/mL CAZ [3]
1 | O=C(Cc1cccs1)N[C@@H](Cc1ccc(C(=O)O)cc1O)B(O)O [Example 2, (1R)-1-(2-thiophene-2-yl-acetylamino)-2-(2-hydroxy-4-carboxyphenyl)ethyl-1-boronic acid] | A (A represents an MIC>8 μg/mL) |  | 
2 | O=C(Cc1cccc(O)c1)N[C@@H](Cc1cccc(C(=O)O)c1O)B(O)O [Example 3, (1R)-1-(3-hydroxy-phenyl)acetylamino-1-(3-carboxy-2-hydroxy)benzyl-methyl boronic acid] |  | C (C represents an MIC of <1 μg/mL) | C (C represents an MIC of <1 μg/mL)
3 | O=C(CCC(=O)c1cccs1)N[C@@H](Cc1cccc(C(=O)O)c1O)B(O)O [Example 5, (1R)-1-(4-oxo-4-thiophen-2-yl-butyrylamino)-2-(2-hydroxy-3-carboxyphenyl)ethyl-1-boronic acid] | C (C represents an MIC of <1 μg/mL) | C (C represents an MIC of <1 μg/mL) | C (C represents an MIC of <1 μg/mL)
4 | CC(=O)N[C@@H](Cc1cccc(C(=O)O)c1O)B(O)O [Example 6, (1R)-1-(2-acetylamino)-2-(2-hydroxy-3-carboxyphenyl)ethyl-1-boronic acid] |  | C (C represents an MIC of <1 μg/mL) | C (C represents an MIC of <1 μg/mL)
5 | NC(=O)COc1cccc(CC(=O)N[C@@H](Cc2cccc(C(=O)O)c2O)B(O)O)c1 [Example 8, (1R)-1-[(3-carbamoylmethoxy)-phenyl]-acetylamino-(3-carboxy-2-hydroxy)benzyl-methylboronic acid] |  | C (C represents an MIC of <1 μg/mL) | C (C represents an MIC of <1 μg/mL)
6 | O=C(N[C@@H](Cc1cccc(C(=O)O)c1O)B(O)O)c1cccs1 [Example 11, (1R)-1-(thiophene-2-carbonyl-amino)-2-(2-hydroxy-3-carboxyphenyl)ethyl-1-boronic acid] | C (C represents an MIC of <1 μg/mL) | C (C represents an MIC of <1 μg/mL) | C (C represents an MIC of <1 μg/mL)
7 | N[C@H](C(=O)N[C@@H](Cc1cccc(C(=O)O)c1O)B(O)O)c1ccccc1.O=CO [Example 12, (1R,2′S)-1-(2-amino-2-phenylacetylamino)-2-(2-hydroxy-3-carboxyphenyl)ethyl-1-boronic acid formate salt] |  | C (C represents an MIC of <1 μg/mL) | C (C represents an MIC of <1 μg/mL)
8 | O=C(N[C@@H](Cc1cccc(C(=O)O)c1O)B(O)O)c1ccccc1 [Example 13, (1R)-1-Benzoylamino-1-(3-carboxy-2-hydroxy)benzyl-methylboronic acid] | C (C represents an MIC of <1 μg/mL) | C (C represents an MIC of <1 μg/mL) | C (C represents an MIC of <1 μg/mL)
9 | CC(C)C(=O)N[C@@H](Cc1cccc(C(=O)O)c1O)B(O)O [Example 14, (1R)-1-Isobutyrylamino-1-(3-carboxy-2-hydroxy)benzyl-methylboronic acid] | C (C represents an MIC of <1 μg/mL) | C (C represents an MIC of <1 μg/mL) | C (C represents an MIC of <1 μg/mL)
10 | O=C(O)c1cccc(C[C@H](NC(=O)C2CCCC2)B(O)O)c1O [Example 15, (1R)-1-Cyclopentanecarbonylamino-(3-carboxy-2-hydroxy)benzyl-methylboronic acid] | C (C represents an MIC of <1 μg/mL) | C (C represents an MIC of <1 μg/mL) | C (C represents an MIC of <1 μg/mL)
11 | O=C(Cc1cc(O)ccc1O)N[C@@H](Cc1cccc(C(=O)O)c1O)B(O)O [Example 18, (1R)-1-(2-(2,5-dihydroxyphenyl)acetylamino)-2-(2-hydroxy-3-carboxyphenyl)ethyl-1-boronic acid] |  | C (C represents an MIC of <1 μg/mL) | 
12 | O=C(COCc1ccccc1)N[C@@H](Cc1cccc(C(=O)O)c1O)B(O)O [Example 22, (1R)-1-(2-benzyloxyacetylamino)-2-(2-hydroxy-3-carboxyphenyl)ethyl-1-boronic acid] |  | C (C represents an MIC of <1 μg/mL) | C (C represents an MIC of <1 μg/mL)
13 | CCCCCCC(=O)N[C@@H](Cc1cccc(C(=O)O)c1O)B(O)O [Example 24, (1R)-1-(heptanoylamino)-2-(2-hydroxy-3-carboxyphenyl)ethyl-1-boronic acid] |  | C (C represents an MIC of <1 μg/mL) | C (C represents an MIC of <1 μg/mL)
14 | CC(C)(C)CC(=O)N[C@@H](Cc1cccc(C(=O)O)c1O)B(O)O [Example 25, (1R)-1-(3,3-Dimethyl-butyrylamino)-(3-carboxy-2-hydroxy)benzyl-methylboronic acid] |  | C (C represents an MIC of <1 μg/mL) | C (C represents an MIC of <1 μg/mL)
15 | O=C(O)c1cccc(C[C@H](NC(=O)c2cccc3ccccc23)B(O)O)c1O [Example 27, (1R)-1-(1-naphthoylamino)-2-(2-hydroxy-3-carboxyphenyl)ethyl-1-boronic acid] |  |  | C (C represents an MIC of <1 μg/mL)
16 | O=C(N[C@@H](Cc1cccc(C(=O)O)c1O)B(O)O)c1cccc(O)c1 [Example 28, (1R)-1-(3-hydroxybenzoylamino)-2-(2-hydroxy-3-carboxyphenyl)ethyl-1-boronic acid] |  | C (C represents an MIC of <1 μg/mL) | C (C represents an MIC of <1 μg/mL)
17 | Cc1ccccc1C(=O)N[C@@H](Cc1cccc(C(=O)O)c1O)B(O)O [Example 30, (1R)-1-(2-methylbenzoylamino)-2-(2-hydroxy-3-carboxyphenyl)ethyl-1-boronic acid] |  |  | C (C represents an MIC of <1 μg/mL)
18 | O=C(N[C@@H](Cc1cccc(C(=O)O)c1O)B(O)O)c1ccc(Cl)nc1 [Example 31, (1R)-1-(6-Chloro-pyridine-3-carbonyl)-amino-1-(3-carboxy-2-hydroxy)benzyl-methylboronic acid] |  | C (C represents an MIC of <1 μg/mL) | C (C represents an MIC of <1 μg/mL)
19 | O=C(N[C@@H](Cc1cccc(C(=O)O)c1O)B(O)O)c1ccc(Cl)cc1 [Example 32, (1R)-1-(4-Chloro-benzoyl)-amino-1-(3-carboxy-2-hydroxy)benzyl-methylboronic acid] |  |  | C (C represents an MIC of <1 μg/mL)
20 | COc1ccc(C(=O)N[C@@H](Cc2cccc(C(=O)O)c2O)B(O)O)cc1 [Example 33, (1R)-1-(4-Methoxybenzoyl)-amino-1-(3-carboxy-2-hydroxy)benzyl-methylboronic acid] |  |  | C (C represents an MIC of <1 μg/mL)
21 | O=C(N[C@@H](Cc1cccc(C(=O)O)c1O)B(O)O)c1ccccc1O [Example 35, (1R)-1-(2-hydroxybenzoylamino)-2-(2-hydroxy-3-carboxyphenyl)ethyl-1-boronic acid] |  |  | C (C represents an MIC of <1 μg/mL)
22 | O=C(Cn1cccn1)N[C@@H](Cc1cccc(C(=O)O)c1O)B(O)O [Example 40, (1R)-1-(Pyrazol-1-yl-acetylamino)-2-(2-hydroxy-3-carboxyphenyl)ethyl-1-boronic acid] |  | C (C represents an MIC of <1 μg/mL) | C (C represents an MIC of <1 μg/mL)
23 | NCc1cccc(C(=O)N[C@@H](Cc2cccc(C(=O)O)c2O)B(O)O)c1.O=CO [Example 42, (1R)-1-(3-aminomethyl)-benzoylamino-1-(3-carboxy-2-hydroxy)benzyl-methyl boronic acid formate] | C (C represents an MIC of <1 μg/mL) |  | C (C represents an MIC of <1 μg/mL)
24 | O=C(CN1C(=O)c2ccccc2C1=O)N[C@@H](Cc1cccc(C(=O)O)c1O)B(O)O [Example 45, (1R)-1-(2-(1,3-dioxoisoindolin-2-yl)acetylamino)-2-(2-hydroxy-3-carboxyphenyl)ethyl-1-boronic acid] |  |  | C (C represents an MIC of <1 μg/mL)
